Biological target: T1, glucosamine-6-phosphate synthase (Escherichia coli, UniProt P17169)
T1 construct: allowed mutagenesis of a 2247 base pair region that included the entire glmS gene; made in house; host or cells: E. coli W3110-derived (DE3) production strains with integrated T7-glmS cassette; crude extract
Assay type: biochemical
Settings: spectrophotometric assay, FIG. 5
Procedure: In the spectrophotometric assay, 1 mL reactions containing 50 mM KH2PO4/K2HPO4, 10 nM fructose-6-phosphate, 6 mM L-glutamine, 10 mM KCl, 0.6 mM acetylpyridine adenine dinucleotide (APAD), and 50-60 Units of L-glutamic dehydrogenase (Sigma Type II from bovine liver) were run at room temperature. The activity was followed by monitoring the absorbance at 365 nm after the addition of extract and corrected for the small absorbance increase observed in the absence of extract. The activity was calculated using a molar extinction coefficient for APAD of 9100.
Using the spectrophotometric assay for glucosamine-6-phosphate synthase as described in Example 2, the effects of glucosamine-6-phosphate and glucosamine on glucosamine-6-phosphate synthase were measured. For determination of product inhibition, assays were run in the presence of various concentrations of added glucosamine-6-phosphate.
The strains were grown overnight in LB broth containing 100 μg/mL ampicillin and 1 mM IPTC. […]
Strains 2123-12, 2123-49, 2123-54, 2123-124, 2123-149, and 2123-151, described in the examples above, were grown overnight in LB broth at 37° C. then transferred to fresh LB broth. Cultures were grown to an absorbance at 600 nm of 0.8 to 0.9, then induced for GlcN6P synthase production by the addition of 1 mM IPTG. […]

T1 sequence (P17169 2-609): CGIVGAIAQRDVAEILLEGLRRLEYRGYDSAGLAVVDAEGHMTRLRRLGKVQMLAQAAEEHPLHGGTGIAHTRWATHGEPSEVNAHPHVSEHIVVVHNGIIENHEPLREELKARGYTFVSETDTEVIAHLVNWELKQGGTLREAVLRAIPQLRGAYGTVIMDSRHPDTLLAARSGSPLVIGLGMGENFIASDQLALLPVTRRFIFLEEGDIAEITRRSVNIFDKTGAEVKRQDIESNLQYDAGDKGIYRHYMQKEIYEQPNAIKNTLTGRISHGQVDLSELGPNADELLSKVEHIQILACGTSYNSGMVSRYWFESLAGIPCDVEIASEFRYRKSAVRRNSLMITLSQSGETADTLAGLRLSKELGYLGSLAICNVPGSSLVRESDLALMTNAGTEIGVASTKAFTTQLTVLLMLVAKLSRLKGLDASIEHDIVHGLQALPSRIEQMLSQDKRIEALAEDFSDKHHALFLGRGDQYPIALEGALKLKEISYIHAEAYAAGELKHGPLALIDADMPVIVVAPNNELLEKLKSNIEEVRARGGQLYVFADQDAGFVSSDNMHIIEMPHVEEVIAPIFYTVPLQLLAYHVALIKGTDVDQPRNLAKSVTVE

| SMILES | Inhibition of glucosamine-6-phosphate synthase by the added substance |
| --- | --- |
| N[C@H]1C(O)O[C@H](COP(=O)(O)O)[C@@H](O)[C@@H]1O (some centres unmarked) [glucosamine-6-phosphate] | significantly inhibited |
| N[C@H]1C(O)O[C@H](CO)[C@@H](O)[C@@H]1O (some centres unmarked) [glucosamine] | slightly inhibited |
